Structures can show the parent of a compound that is named as a salt.
Tests used:
Type in all cases: in vivo, rat
malondialdehyde (MDA) = experiment: Serum MDA content in rats with myocardial ischemia; conditions: 10 mg/kg intragastric; serum, 24 h after ligation
Method: (§1) At 0.5 h after the rats of these groups were administered intragastrically, the standard II lead electrocardiogram (before modeling) was recorded, and the height of ST-T segment was measured. The rats of sham operation group were then subjected to coronary artery braid without ligation, and the rats of other groups were subjected to coronary artery ligation in accordance with the following method to establish cute myocardial ischemia models. The rats were subjected to etherization, fixed at supine position, and their normal electrocardiograms (before modeling) were recorded. The skin of left thorax was incised under aseptic conditions, the 4th intercostal muscles were isolated in blunt way, the heart was extruded by light pressure to the right thorax, the left anterior descending coronary artery was ligated at a position 2˜3 mm departing from the left coronary artery origin and between the pulmonary conus and the left auricle of heart, then the heart was sent back to thorax cavity immediately and sutured the incision. Penicillin was smeared topically for the prevention of infections. After operation, the electrocardiogram of postischemia was recorded immediately (at 0 min after modeling), and the height of ST-T segment was measured.

creatine kinase (CK) = experiment: Serum CK activity in rats with myocardial ischemia; conditions: 10 mg/kg intragastric; serum, 24 h after ligation
Method: as §1

anesthetized rats = experiment: Blood pressure and left ventricular function of anesthetized rats; conditions: for change-rate of left intraventricular pressure MAX / change-rate of left intraventricular pressure, -MAX / contractive pressure / diastolic pressure / heart rate / left intraventricular pressure / mean arterial pressure: 11.4 mg/kg duodenal
Method: All data were input into PowerLab/8Sp data acquisition and processing system via RM-6000 multi-channel polygraph, and recorded, analyzed and processed by PowerLab/8Sp.
The abdomen was opened 1.5 cm below xiphoid bone to isolate duodenum, a small incision was formed on the duodenum away from blood vessels by ophthalmic scissors, a catheter was inserted and the incision was fixed by suture for administration. After the end of operation and a further waiting period of 30 min, normal data were recorded once the indexes to be monitored were stable.
Test drugs were duodenally administered via the catheter, and the indexes were monitored 5, 15, 30, 60, 90 and 120 min after the administration. The change ratios of the indexes were calculated in accordance with the following formula, and were used for statistic analysis among groups.

[1] = system: lactate dehydrogenase (LDH); experiment: Serum LDH activity in rats with myocardial ischemia; conditions: 10 mg/kg intragastric; serum, 24 h after ligation
Method: as §1

[2] = system: superoxide dismutase (SOD); experiment: Serum SOD activity in rats with myocardial ischemia; conditions: 10 mg/kg intragastric; serum, 24 h after ligation
Method: as §1

[3] = system: creatine kinase isoenzyme (CK-MB); experiment: Serum CK-MB activity in rats with myocardial ischemia; conditions: 10 mg/kg intragastric; serum, 24 h after ligation
Method: as §1

[4] = system: rats with acute myocardial ischemia; experiment: Area of myocardial infarction in rats with acute myocardial ischemia (coronary artery ligation); conditions: 10 mg/kg intragastric; 24 h after coronary artery ligation
Method: as §1

[5] = system: rats with acute myocardial ischemia; experiment: ST-T segment of ECG in rats with myocardial ischemia; conditions: 10 mg/kg intragastric
Method: as §1

What does the source list for `COc1ccc(CCN(C)CCCC(C#N)(c2ccc(OC)c(OC)c2)C(C)C)cc1OC` (stereo not drawn) [Verapamil, verapamil hydrochloride, reference compound]?
MDA (malondialdehyde (MDA)): 11.86 ± 5.93 nmol/mL; CK (creatine kinase (CK)): 752.2 ± 102.8 U/L; change-rate of left intraventricular pressure MAX (anesthetized rats; 5 min after administration): 4857.7 ± 1002.4 mmHg/s; change-rate of left intraventricular pressure, -MAX (anesthetized rats; 5 min after administration): −3812.9 ± 779.3 mm/Hg/s; contractive pressure (anesthetized rats; 5 min after administration): 115.30 ± 19.35 mmHg; diastolic pressure (anesthetized rats; 5 min after administration): 59.69 ± 12.55 mmHg; heart rate (anesthetized rats; 5 min after administration): 345.03 ± 33.81 beat/min; left intraventricular pressure (anesthetized rats; 5 min after administration): 128.71 ± 14.20 mmHg; mean arterial pressure (anesthetized rats; 5 min after administration): 78.22 ± 14.31 mmHg; change-rate of left intraventricular pressure MAX (anesthetized rats; 15 min after administration): 4284.9 ± 793.2 mmHg/s; change-rate of left intraventricular pressure, -MAX (anesthetized rats; 15 min after administration): −3548.9 ± 707.7 mm/Hg/s; contractive pressure (anesthetized rats; 15 min after administration): 98.48 ± 16.13 mmHg; diastolic pressure (anesthetized rats; 15 min after administration): 50.08 ± 9.88 mmHg; heart rate (anesthetized rats; 15 min after administration): 324.96 ± 36.20 beat/min; left intraventricular pressure (anesthetized rats; 15 min after administration): 120.22 ± 12.98 mmHg; mean arterial pressure (anesthetized rats; 15 min after administration): 66.21 ± 11.57 mmHg; change-rate of left intraventricular pressure MAX (anesthetized rats; 30 min after administration): 4152.8 ± 901.5 mmHg/s; change-rate of left intraventricular pressure, -MAX (anesthetized rats; 30 min after administration): −3416.6 ± 767.5 mm/Hg/s; contractive pressure (anesthetized rats; 30 min after administration): 94.47 ± 17.17 mmHg; diastolic pressure (anesthetized rats; 30 min after administration): 48.00 ± 9.98 mmHg; heart rate (anesthetized rats; 30 min after administration): 322.02 ± 51.09 beat/min; left intraventricular pressure (anesthetized rats; 30 min after administration): 116.59 ± 13.59 mmHg; mean arterial pressure (anesthetized rats; 30 min after administration): 63.49 ± 11.93 mmHg; change-rate of left intraventricular pressure MAX (anesthetized rats; 60 min after administration): 3919.4 ± 784.0 mmHg/s; contractive pressure (anesthetized rats; 60 min after administration): 98.49 ± 22.31 mmHg; diastolic pressure (anesthetized rats; 60 min after administration): 48.81 ± 11.47 mmHg; heart rate (anesthetized rats; 60 min after administration): 317.91 ± 58.04 beat/min; left intraventricular pressure (anesthetized rats; 60 min after administration): 115.68 ± 15.37 mmHg; mean arterial pressure (anesthetized rats; 60 min after administration): 65.37 ± 14.57 mmHg; change-rate of left intraventricular pressure MAX (anesthetized rats; 90 min after administration): 3759.0 ± 814.5 mmHg/s; change-rate of left intraventricular pressure, -MAX (anesthetized rats; 90 min after administration): −3247.4 ± 773.2 mm/Hg/s; contractive pressure (anesthetized rats; 90 min after administration): 99.15 ± 23.91 mmHg; diastolic pressure (anesthetized rats; 90 min after administration): 49.38 ± 13.27 mmHg; heart rate (anesthetized rats; 90 min after administration): 329.61 ± 55.70 beat/min; left intraventricular pressure (anesthetized rats; 90 min after administration): 115.10 ± 16.60 mmHg; mean arterial pressure (anesthetized rats; 90 min after administration): 65.97 ± 16.34 mmHg; change-rate of left intraventricular pressure MAX (anesthetized rats; 120 min after administration): 4044.6 ± 844.9 mmHg/s; change-rate of left intraventricular pressure, -MAX (anesthetized rats; 120 min after administration): −3452.2 ± 630.9 mm/Hg/s; contractive pressure (anesthetized rats; 120 min after administration): 102.58 ± 27.01 mmHg; diastolic pressure (anesthetized rats; 120 min after administration): 51.84 ± 13.93 mmHg; heart rate (anesthetized rats; 120 min after administration): 328.05 ± 58.98 beat/min; left intraventricular pressure (anesthetized rats; 120 min after administration): 118.39 ± 16.55 mmHg; mean arterial pressure (anesthetized rats; 120 min after administration): 68.75 ± 17.93 mmHg; change-rate of left intraventricular pressure MAX (anesthetized rats; before administration): 5455.9 ± 1418.1 mmHg/s; change-rate of left intraventricular pressure, -MAX (anesthetized rats; before administration): −4215.6 ± 1058.0 mm/Hg/s; contractive pressure (anesthetized rats; before administration): 137.10 ± 28.79 mmHg; diastolic pressure (anesthetized rats; before administration): 75.39 ± 19.27 mmHg; heart rate (anesthetized rats; before administration): 363.19 ± 46.67 beat/min; left intraventricular pressure (anesthetized rats; before administration): 137.79 ± 18.96 mmHg; mean arterial pressure (anesthetized rats; before administration): 95.96 ± 22.22 mmHg; dp/dt (in words) (anesthetized rats; verapamil group (11.4 mg/kg)): significantly reduced; effect on the heart rate (in words) (anesthetized rats; verapamil group (11.4 mg/kg)): significantly reduced; left intraventricular pressure (in words) (anesthetized rats; verapamil group (11.4 mg/kg)): significantly reduced; −dp/dt (in words) (anesthetized rats; verapamil group (11.4 mg/kg)): significantly reduced; mean arterial pressure, systolic pressure and diastolic pressure (in words) (anesthetized rats; verapamil group (11.4 mg/kg), 5-120 min): significantly reduce; LDH [1]: 1160.8 ± 145.0 U/L; SOD [2]: 126.16 ± 28.10 U/mL; CK-MB [3]: 776.6 ± 127.6 U/L; Infarct region weight [4]: 0.18 ± 0.04 g; Non-infarct region weight [4]: 0.46 ± 0.08 g; Percentage (infarct cardiac muscles of whole ventricle, by weight) [4]: 27.60 ± 5.03 %; Ventricle weight [4]: 0.65 ± 0.09 g; Elevation of ST-T segment ([5]; 0 min after modeling): 0.23 ± 0.12 mV; Elevation of ST-T segment ([5]; 24 h after modeling): 0.18 ± 0.04 mV; Elevation of ST-T segment, Change rate ([5]; 24 h after modeling): 19.17 ± 20.94 %; Elevation of ST-T segment ([5]; before modeling): 0.23 ± 0.04 mV

Source: patent US8017786B2, “Substituted β-phenyl-α-hydroxy-propanoic acid, synthesis method and use thereof” (Northwest University, priority 2006, dated 2011)
